Assay [1] deals with T-47D. Put plainly: Caspase cascade activation assay (N-(Ac-DEVD)-N'-ethoxycarbonyl-R110 fluorogenic substrate) in T-47D cells. In kind it is cell-based. The settings on record: T-47D human breast cancer cells, 24 h incubation; ratio of net RFU of compound to control. How it is done:
(§1) Human breast cancer cell lines T-47D and ZR-75-1 were grown according to media component mixtures designated by American Type Culture Collection +10% FCS (Invitrogen Corporation), in a 5% CO2−95% humidity incubator at 37° C. T-47D and ZR-75-1 cells were maintained at a cell density between 30 and 80% confluency at a cell density of 0.1 to 0.6×10^6 cells/mL. Cells were harvested at 600×g and resuspended at 0.65×10^6 cells/mL into appropriate media +10% FCS. An aliquot of 45 μL of cells was added to a well of a 96-well microtiter plate containing 5 μL of a 10% DMSO in RPMI-1640 media solution containing 0.16 to 10 μM of 4-(3-bromo-4,5-dimethoxyphenyl)-3-cyano-4H-indolo[4,5-b]pyran (Example 1) or other test compound (0.016 to 1 μM final). An aliquot of 45 μL of cells was added to a well of a 96-well microtiter plate containing 5 μL of a 10% DMSO in RPMI-1640 media solution without test compound as the control sample. The samples were mixed by agitation and then incubated at 37° C. for 24 h in a 5% CO2-95% humidity incubator. After incubation, the samples were removed from the incubator and 50 μL of a solution containing 20 μM of N-(Ac-DEVD)-N′-ethoxycarbonyl-R110 (SEQ ID No.:1) fluorogenic substrate (Cytovia, Inc.; U.S. Pat. No. 6,335,429), 20% sucrose (Sigma), 20 mM DTT (Sigma), 200 mM NaCl (Sigma), 40 mM Na PIPES buffer pH 7.2 (Sigma), and 500 μg/mL lysolecithin (Calbiochem) was added. The samples were mixed by agitation and incubated at room temperature. Using a fluorescent plate reader (Model 1420 Wallac Instruments), an initial reading (T=0) was made approximately 1-2 min after addition of the substrate solution, employing excitation at 485 nm and emission at 530 nm, to determine the background fluorescence of the control sample. After the 3 h incubation, the samples were read for fluorescence as above (T=3 h).
(§2) The Relative Fluorescence Unit values (RFU) were used to calculate the sample readings as follows: RFU(T=3h)−Control RFU(T=0)=Net RFU(T=3h)
(§3) The activity of caspase cascade activation was determined by the ratio of the net RFU value for 4-(3-bromo-4,5-dimethoxyphenyl)-3-cyano-4H-indolo[4,5-b]pyran or other test compound to that of control samples. The EC50 (nM) was determined by a sigmoidal dose-response calculation (Prism 2.0, GraphPad Software Inc.).

Assay [2] has as its system ZR-75-1. Put plainly: Caspase cascade activation assay (N-(Ac-DEVD)-N'-ethoxycarbonyl-R110 fluorogenic substrate) in ZR-75-1 cells. Particulars: ZR-75-1 human breast cancer cells, 24 h incubation; for EC50: sigmoidal dose-response, read-out: ZR-75-1 EC50 (nM) (potency). It counts as cell-based. Here is the method: as §1, §2, §3

Some results are limits rather than exact numbers.

Results on ten molecules are retold here after patent US7476741B2, “Substituted 4H-chromens, 2H-chromenes, chromans and analogs as activators of caspases and inducers of apoptosis and the use thereof” (Cytovia, Inc., priority 2002, dated 2009).

The term EC50 denotes the concentration giving half of the maximal effect.

As to `CCn1ccc2c3c(ccc21)C(c1cc(Br)c(OC)c(OC)c1)C(C#N)=CO3` (stereo not drawn) [Example 5, 4-(3-Bromo-4,5-dimethoxyphenyl)-3-cyano-7-ethyl-4H-indolo[4,5-b]pyran], the “T-47D Ratio (caspase activity)” value in assay [1] stood at 3.6. Further, in assay [2], the EC50 came out at 18 nM.
For the molecule `N#CC1=COc2ccccc2C1c1ccccc1` (stereo not drawn) [Example 6, 3-Cyano-4-phenyl-4H-chromene], in assay [1], the “T-47D Ratio (caspase activity)” value is given as “In-active”. For the same molecule, the “ZR-75-1 Ratio (caspase activity)” value in assay [2] (ratio of net RFU of compound to control) is “In-active”. The EC50 in assay [2] came out at 2940 nM.
On to `COC1CC(c2cc(Cl)cc(Cl)c2)c2ccc(N)cc2O1` (stereo not drawn), for which, in assay [1], the “T-47D Ratio (caspase activity)” value is 1.2. Further, the EC50 in assay [2] was above 10000 nM.
For `COc1cc(C2C(C#N)=COc3c2ccc2[nH]ccc32)cc(Br)c1OC` (stereo not drawn) [Example 1, 4-(3-Bromo-4,5-dimethoxyphenyl)-3-cyano-4H-indolo[4,5-b]pyran], in that order: 7.3 and 32 nM.
Take `COc1cc(C2CC(O)Oc3cc(NC(C)=O)ccc32)cc(Br)c1OC` (stereo not drawn) [Example 27, N-[4-(3-Bromo-4,5-dimethoxyphenyl)-2-hydroxy-chroman-7-yl]-acetamide]: the “T-47D Ratio (caspase activity)” value in assay [1] is 1.3. The 50% effective concentration (EC50) in assay [2] was determined as 548 nM.
`COc1cc(C2CC(OC)Oc3c2ccc2c3ccn2C)cc(Br)c1OC` (stereo not drawn) [Example 19, 4-(3-Bromo-4,5-dimethoxyphenyl)-2-methoxy-7-methyl-pyrrolo[2,3-h]chroman]: the “T-47D Ratio (caspase activity)” value in assay [1] was 4.5. In addition, the EC50 in assay [2] was determined as 48 nM.
For `COc1cc(C2CC(OC)Oc3cc(N(C)C)ccc32)cc(Br)c1OC` (stereo not drawn) [Example 16, 4-(3-Bromo-4,5-dimethoxyphenyl)-7-dimethylamino-2-methoxy-chroman], in that order: 6.8 and 275 nM.
For `COc1cc(C2CC(O)Oc3c2ccc2c3ccn2C)cc(OC)c1OC` (stereo not drawn) [Example 25, 2-Hydroxy-7-methyl-4-(3,4,5-trimethoxyphenyl)-pyrrolo[2,3-h]chroman], in that order: 10.1 and 4 nM.
For the molecule `COc1cc(C2C(C#N)=COc3c2ccc2c3ccn2C)cc(Br)c1OC` (stereo not drawn) [Example 4, 4-(3-Bromo-4,5-dimethoxyphenyl)-3-cyano-7-methyl-4H-indolo[4,5-b]pyran], the “T-47D Ratio (caspase activity)” value in assay [1] is listed as 5.9. For the same molecule, the EC50 in assay [2] was found to be 2.2 nM.
Take `COc1cc(C2C(C#N)=COc3c2ccc2c3oc(=O)n2C)cc(Br)c1OC` (stereo not drawn) [Example 7]: the “T-47D Ratio (caspase activity)” value in assay [1] is on record as 6.7. In assay [2], the concentration for a half-maximal effect (EC50) was 14 nM.
